Data: US9447114B2, “Thieno- and furo[2,3-d]pyrimidine-2,4[1H,3H]-dione derivatives” (Hydra Biosciences, Inc., priority 2014, dated 2016)

Key:
TRPC5 channel [1] = biological target: T1, TRPC5 channel (Homo sapiens (Human), UniProt Q9UL62); experiment: High throughput screening assay: intracellular Ca2+ rise, Fluo4 cell-based fluorescence; conditions: HEK293/TREx cells inducibly expressing TRPC5, high-Ca2+ Ringer, 14 mM Ca2+ final, triplicate, 0.027-20 μM
Text: The assay depended on detection of the rise in intracellular Ca2+ concentration ([Ca2+]i) following channel activation in cells inducibly expressing the TRPC5 channel. Ca2+ rise was quantified with the use of fluorescent Ca2+ indicators that were loaded into cells and thereafter indicated the [Ca2+]i Ca2+ influx followed activation of the TRPC5 channel. Compounds inhibiting the [Ca2+]i rise were considered hits for further investigation.
The commercially available HEK293/TREx line (Invitrogen) was stably transfected with a TRPC5 construct and screened by conventional calcium imaging to find clones with TRPC5 expression following stimulation with 1 μg/ml tetracycline. These cells were maintained in the growth medium recommended by the manufacturer supplemented with 100 μg/ml hygromycin to promote retention of the TRPC5 construct. After growing to near confluency, cells were plated at a density of ˜35,000 cells/well in 384 well CellBind plates (Corning) in the presence of 1 μg/ml tetracycline, and allowed to grow for 20-30 hrs. A nearly confluent monolayer resulted. Cells were then loaded with Ca2+ dye: Fura-2/AM or Fluo4/AM was added to the wells to a final concentration of 4 μM or 0.5 μM, respectively, and incubated for 80 min or 60 min, respectively, at room temperature. Supernatant was then removed from the cells by inverting plates with a sharp flick, and 25 μl Hank's Balanced Salt Solution (HBSS; 0.185 g/l D-glucose, 0.9767 g/l MgS04 (anhydrous), 0.4 g/l KCl, 0.06 g/l KH2PO4 (anhydrous), 0.35 g/l NaHCO3, 8.0 g/l NaCl, and 0.04788 g/l Na2HPO4 (anhydrous); pH 7.4) was then added to each well. Following ˜0.5 hour for recovery from loading, cells were assayed using the Hamamatsu FDSS 6000 system, which permitted illumination alternately at 340 nm and 380 nm for Fura-2 experiments, or at 485 nm for Fluo4 experiments. Frames were acquired at a rate of 0.2 Hz. During the assay, the plates were continuously vortexed, with pipette mixing of wells following addition of each reagent. For the screening assay, 26 μl of a diluted compound stock (at 50 μM) was added to each well for 2 minutes following the collection of a short (4 frame) baseline. 13 μl 62 mM high-Ca2+Ringer solution (4.17 ml of normal ringer (with 2 mM Ca2+) plus 5.83 ml of isotonic calcium ringer (105 mM Ca2+; in this ringer all sodium has been replaced with calcium)) was then added to each well, achieving a final concentration of 14 mM Ca2+ and 10 μM test compound. Data was collected for ˜3 minutes following addition of high Ca2+Ringer, where the fluorescent intensity (for Fluo4) and the F340/F380 ratio (for Fura-2) were proportional to the [Ca2+]i Negative controls consisted of HEK293/TREx TRPC5 cells exposed to high Ca2+ solution, but no compound. Positive control conditions consisted of addition of 2-APB, a promiscuous blocker of TRPC5 and other channels, to columns 23 and 24 of the plates, to a final concentration of 200 μM. These controls defined a screening window, and “hits” were defined as those compounds inhibiting the fluorescence response by at least 40%. IC50 values were determined for compounds defined as “hits.” The Fluo4 cell-based fluorescence assay was used to determine the intracellular Ca2+ concentration in the presence of varying drug concentration. Final concentrations of compounds tested were 20 μM, 6.667 μM, 2.222 μM, 0.741 μM, 0.247 μM, 0.082 μM, and 0.027 μM. Compounds were tested in triplicate at all concentrations. Standard software was used to fit IC50 curves.
Additionally or alternatively, efficacy can be represented as % inhibition in the presence (of a given concentration of compound) versus the absence of compound or in comparison to a control compound. For example, efficacy can be represented as % inhibition of ion flux in the presence versus the absence of compound.

TRPC5 channel [2] = biological target: T1, TRPC5 channel; experiment: Whole-cell patch clamp of TRPC5 current; format: cell-based; conditions: TRPC5-expressing HEK293 TREx cells, current activated by 80 μM LaCl3 and 1.4 μM free Ca2+ in pipette, IC50 estimated
Text: Patch clamp experiments permit the detection of currents through the TRPC5 channel in the cell line described above. In normal whole-cell patch clamp recordings, a glass electrode is brought into contact with a single cell and a high-resistance (gigaohm) seal is established with the cell membrane. The membrane is then ruptured to achieve the whole-cell configuration, permitting control of the voltage of the cell membrane and measurement of currents flowing across the membrane using the amplifier attached to the electrode and resulting in the replacement of cytoplasm with the pipette solution. A perfusion system permits control of the extracellular solution, including the addition of blockers and activators of the current. The current can be activated by including 1.4 μM free Ca^2+ in the pipette (intracellular) solution, and 80 μM LaCl3 in the extracellular solution.
TRPC5 cells were induced 20-48 hours, removed from growth plates, and replated at low density (to attain good single-cell physical separation) on glass coverslips for measurement. In some cases, cells were grown in low density overnight on glass coverslips. Patch clamp recordings were made in the whole-cell mode with a holding potential of −40 mV. Every 5 seconds, a voltage ramp was applied from −120 to +100 mV, 400 ms in duration. Currents elicited were quantified at −80 mV and +80 mV. The internal solution consisted of 140 mM cesium aspartate, 10 mM HEDTA, 2 mM CaCl2, 2.27 mM MgCl2 and 10 mM HEPES, pH 7.2, with 1,400 nM calculated free Ca^2+. The external solution consisted of 150 mM NaCl, 4.5 mM KCl, 1 mM MgCl2, 2 mM CaCl2 10 mM HEPES, 10 mM glucose, 1 mM EGTA, pH 7.4. Upon addition of LaCl3, TRPC5 current was induced only in TRPC5-expressing cells and not in parental HEK293 TREx cells. Removal of the LaCl3 stimulus causes most of the current to go away. Potential blockers were tested for ability to block both inward and outward currents in the continued presence of LaCl3.
IC50 of a compound of Formula (I) was estimated by testing the compound at 5 μM and 500 nM. […] IC50 for a compound of Formula (I) between 500 nM and 5 μM was similarly estimated.

T1 sequence (Q9UL62 whole entry): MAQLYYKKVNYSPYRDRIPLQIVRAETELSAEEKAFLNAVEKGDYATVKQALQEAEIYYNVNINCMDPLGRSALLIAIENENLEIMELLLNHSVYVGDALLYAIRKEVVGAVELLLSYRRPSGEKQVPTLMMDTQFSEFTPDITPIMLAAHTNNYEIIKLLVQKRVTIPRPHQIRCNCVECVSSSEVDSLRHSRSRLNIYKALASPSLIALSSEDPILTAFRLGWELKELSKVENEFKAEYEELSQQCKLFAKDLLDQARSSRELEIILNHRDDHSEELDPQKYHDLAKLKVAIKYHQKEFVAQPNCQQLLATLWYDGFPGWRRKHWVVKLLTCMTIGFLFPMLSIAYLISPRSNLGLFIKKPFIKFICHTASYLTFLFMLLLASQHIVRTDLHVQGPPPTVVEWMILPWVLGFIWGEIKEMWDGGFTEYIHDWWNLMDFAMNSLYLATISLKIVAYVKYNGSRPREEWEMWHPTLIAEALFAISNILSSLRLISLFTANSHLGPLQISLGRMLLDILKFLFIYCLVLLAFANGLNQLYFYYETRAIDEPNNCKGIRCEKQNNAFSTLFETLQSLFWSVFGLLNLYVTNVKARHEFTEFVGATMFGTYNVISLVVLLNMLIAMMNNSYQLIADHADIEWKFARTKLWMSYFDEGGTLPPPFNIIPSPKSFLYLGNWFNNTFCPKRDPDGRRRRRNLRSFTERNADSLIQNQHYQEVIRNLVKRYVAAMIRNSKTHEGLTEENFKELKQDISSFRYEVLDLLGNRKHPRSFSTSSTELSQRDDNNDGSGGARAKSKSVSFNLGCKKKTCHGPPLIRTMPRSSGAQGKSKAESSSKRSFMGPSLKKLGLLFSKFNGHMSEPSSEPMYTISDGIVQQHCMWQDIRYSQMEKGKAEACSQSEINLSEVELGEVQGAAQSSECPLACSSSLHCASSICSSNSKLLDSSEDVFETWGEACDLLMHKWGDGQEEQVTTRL

SMILES | IC50 (TRPC5 channel [1]) | IC50 (TRPC5 channel [2])
Cn1c(=O)n(CCCO)c(=O)c2c(Cc3ccc(Cl)cc3)c(Oc3cccc(OC(F)(F)F)c3)sc21 [Compound 1, 5-(4-chlorobenzyl)-3-(3-hydroxypropyl)-1-methyl-6-(3-(trifluoromethoxy)phenoxy)thieno[2,3-d]pyrimidine-2,4(1H,3H)-dione] | 584 nM | < 1 nM
Cc1c(-c2ccc(Cl)c(Cl)c2)sc2c1c(=O)n(CCCO)c(=O)n2C [Compound 5, 6-(3,4-dichlorophenyl)-3-(3-hydroxypropyl)-1,5-dimethylthieno[2,3-d]pyrimidine-2,4(1H,3H)-dione] | < 27 nM | 
Cn1c(=O)n(CCCO)c(=O)c2c(Cc3ccc(Cl)cc3)c(Oc3cccc(Cl)c3)sc21 [Compound 2, 5-(4-chlorobenzyl)-6-(3-chlorophenoxy)-3-(3-hydroxypropyl)-1-methylthieno[2,3-d]pyrimidine-2,4(1H,3H)-dione] | 117 nM | < 1 nM
CC(C)CCc1c(-c2cccc(OC(F)(F)F)c2)sc2c1c(=O)n(CCCO)c(=O)n2C [Compound 3, 3-(3-hydroxypropyl)-5-isopentyl-1-methyl-6-(3-(trifluoromethoxy)phenyl)thieno[2,3-d]pyrimidine-2,4(1H,3H)-dione] | 340 nM | 
Cc1c(-c2cncc(Cl)c2)sc2c1c(=O)n(CCCO)c(=O)n2C [Compound 8, 6-(5-chloropyridin-3-yl)-3-(3-hydroxypropyl)-1,5-dimethylthieno[2,3-d]pyrimidine-2,4(1H,3H)-dione] | 1700 nM | 
Cn1c(=O)n(CCCO)c(=O)c2c(C(O)c3ccc(Cl)cc3)c(-c3cccc(Cl)c3)sc21 (stereo not shown) [Compound 4, 6-(3-chlorophenyl)-5-((4-chlorophenyl) (hydroxy)methyl)-3-(3-hydroxypropyl)-1-methylthieno[2,3-d]pyrimidine-2,4(1H,3H)-dione] | 55 nM | 
Cc1c(-c2ccc(F)c(C(F)(F)F)c2)sc2c1c(=O)n(CCCO)c(=O)n2C [Compound 6, 6-(4-fluoro-3-(trifluoromethyl)phenyl)-3-(3-hydroxypropyl)-1,5-dimethylthieno[2,3-d]pyrimidine-2,4(1H,3H)-dione] | < 27 nM | 
Cc1c(-c2ccc3ccccc3c2)sc2c1c(=O)n(CCCO)c(=O)n2C [Compound 7, 3-(3-hydroxypropyl)-1,5-dimethyl-6-(naphthalen-2-yl)thieno[2,3-d]pyrimidine-2,4(1H,3H)-dione] | 34.9 nM | 
Cc1c(-c2ccccc2OC(F)(F)F)sc2c1c(=O)n(CCCO)c(=O)n2C [Compound 13, 3-(3-hydroxypropyl)-1,5-dimethyl-6-(2-(trifluoromethoxy)phenyl)thieno[2,3-d]pyrimidine-2,4(1H,3H)-dione] | < 21 nM | 
Cc1c(-c2cccc(OC(F)(F)F)c2)sc2c1c(=O)n(CCCO)c(=O)n2C [Compound 14, 3-(3-hydroxypropyl)-1,5-dimethyl-6-(3-(trifluoromethoxy)phenyl)thieno[2,3-d]pyrimidine-2,4(1H,3H)-dione] | 82.2 nM | 

The next lines start with the values.

IC50 (TRPC5 channel [1]) | IC50 (TRPC5 channel [2]) | SMILES
369 nM |  | CC(C)CC(O)c1c(-c2cccc(OC(F)(F)F)c2)sc2c1c(=O)n(CCCO)c(=O)n2C (stereo not shown) [Compound 22, 5-(1-hydroxy-3-methylbutyl)-3-(3-hydroxypropyl)-1-methyl-6-(3-(trifluoromethoxy)phenyl) thieno[2,3-d]pyrimidine-2,4(1H,3H)-dione]
112 nM |  | Cc1c(-c2ccc(F)c(F)c2)sc2c1c(=O)n(CCCO)c(=O)n2C [Compound 15, 6-(3,4-difluorophenyl)-3-(3-hydroxypropyl)-1,5-dimethylthieno[2,3-d]pyrimidine-2,4(1H,3H)-dione]
134 nM | < 1 nM | Cn1c(=O)n(CCCO)c(=O)c2c(Cc3ccc(Cl)cc3)c(-c3cccc(Cl)c3)oc21 [Compound 27, 5-(4-chlorobenzyl)-6-(3-chlorophenyl)-3-(3-hydroxypropyl)-1-methylfuro[2,3-d]pyrimidine-2,4(1H,3H)-dione]
27 nM |  | Cn1c(=O)n(CCCO)c(=O)c2c(Cc3ccc(Cl)cc3)c(-c3cccc(Cl)c3)sc21 [Compound 23, 5-(4-chlorobenzyl)-6-(3-chlorophenyl)-3-(3-hydroxypropyl)-1-methylthieno[2,3-d]pyrimidine-2,4(1H,3H)-dione]
242 nM | 1.84 nM | Cn1c(=O)n(CCCO)c(=O)c2c(Cc3ccc(Cl)cc3)c(-c3ccc(Cl)cc3)sc21 [Compound 24, 5-(4-chlorobenzyl)-6-(4-chlorophenyl)-3-(3-hydroxypropyl)-1-methylthieno[2,3-d]pyrimidine-2,4(1H,3H)-dione]
1.91 nM | < 1 nM | Cn1c(=O)n(CCCO)c(=O)c2c(Cc3ccc(Cl)cc3)c(-c3cccc(OC(F)(F)F)c3)sc21 [Compound 26, 5-(4-chlorobenzyl)-3-(3-hydroxypropyl)-1-methyl-6-(3-(trifluoromethoxy)phenyl)thieno[2,3-d]pyrimidine-2,4(1H,3H)-dione]
27 nM |  | Cc1c(-c2cccc(F)c2)sc2c1c(=O)n(CCCO)c(=O)n2C [Compound 18, 6-(3-fluorophenyl)-3-(3-hydroxypropyl)-1,5-dimethylthieno[2,3-d]pyrimidine-2,4(1H,3H)-dione]
27 nM |  | Cc1c(-c2ccccc2Cl)sc2c1c(=O)n(CCCO)c(=O)n2C [Compound 16, 6-(2-chlorophenyl)-3-(3-hydroxypropyl)-1,5-dimethylthieno[2,3-d]pyrimidine-2,4(1H,3H)-dione]
226 nM |  | Cc1c(-c2cccc(Cl)c2)sc2c1c(=O)n(CCCO)c(=O)n2C [Compound 19, 6-(3-chlorophenyl)-3-(3-hydroxypropyl)-1,5-dimethylthieno[2,3-d]pyrimidine-2,4(1H,3H)-dione]
4330 nM |  | O=c1c2c(Cc3ccc(Cl)cc3)c(-c3cccc(Cl)c3)oc2n(CCCO)c(=O)n1CCCO [Compound 28, 5-(4-chlorobenzyl)-6-(3-chlorophenyl)-1,3-bis(3-hydroxypropyl)furo[2,3-d]pyrimidine-2,4(1H,3H)-dione]
